Patent US20150105252A1, “SUBSTITUTED PYRAZOLES AS HERBICIDES” (E I DU PONT DE NEMOURS AND COMPANY, priority 2013, published 2015)

How the values were obtained:
foxtail, green = assay: Test E preemergence; assay type: in vivo, Setaria viridis; details: 21 days, scale 0 to 100
Excerpt: (§1) Seeds of plant species selected from bermudagrass (Cynodon dactylon), Surinam grass (Brachiaria decumbens), crabgrass, large (large crabgrass, Digitaria sanguinalis), crabgrass, naked (naked crabgrass, Digitaria nuda), foxtail, green (green foxtail, Setaria viridis), johnsongrass (Sorghum halepense), kochia (Kochia scoparia), morningglory (pitted morningglory, Ipomoea lacunosa), nutsedge, purple (purple nutsedge, Cyperus rotundus), ragweed (common ragweed, Ambrosia elation), mustard, black (black mustard, Brassica nigra), guineagrass (Panicum maximum), dallisgrass (Paspalum dilatatum), barnyardgrass (Echinochloa crus-galli), sandbur (southern sandbur, Cenchrus echinatus), sowthistle (common sowthistle, Sonchus oleraceous), ryegrass, Italian (Italian ryegrass, Lolium multiflorum), signalgrass (broadleaf signalgrass, Brachiaria platyphylla), dayflower, VA (Virginia (VA) dayflower, Commelina virginica), bluegrass (annual bluegrass, Poa annua), quackgrass (Elytrigia repens), mallow (common mallow, Malva sylvestris), buckwheat, wild (wild buckwheat, Polygonum convolvulus), leafy spurge (Euphorbia esula), common chickweed (Stellaria media), wild poinsettia (Euphorbia heterophylla), pigweed, palmer (palmer pigweed, Amaranthus palmeri), and pigweed (redroot pigweed, Amaranthus retroflexus) were planted into a blend of loam soil and sand and treated preemergence with test chemicals formulated in a non-phytotoxic solvent mixture which included a surfactant.
(§2) Treated plants and controls were maintained in a greenhouse for 21 days, after which time all species were compared to controls and visually evaluated. Plant response ratings, summarized in Table E, are based on a scale of 0 to 100 where 0 is no effect and 100 is complete control. A dash (-) response means no test result.

sandbur = assay: Test E preemergence; assay type: in vivo, Cenchrus echinatus; details: 21 days, scale 0 to 100
Excerpt: as §1, §2

ryegrass, Italian = assay: Test E preemergence; assay type: in vivo, Lolium multiflorum; details: 21 days, scale 0 to 100
Excerpt: as §1, §2

bluegrass = assay: Test E preemergence; assay type: in vivo, Poa annua; details: 21 days, scale 0 to 100
Excerpt: as §1, §2

mallow = assay: Test E preemergence; assay type: in vivo, Malva sylvestris; details: 21 days, scale 0 to 100
Excerpt: as §1, §2

buckwheat, wild = assay: Test E preemergence; assay type: in vivo, Polygonum convolvulus; details: 21 days, scale 0 to 100
Excerpt: as §1, §2

crabgrass, Brazil = assay: Test F postemergence; assay type: in vivo, Digitaria horizontalis; details: scale 0 to 100
Excerpt: (§3) Seeds of plant species selected from corn (Zea mays), soybean (Glycine max), velvetleaf (Abutilon theophrasti), lambsquarters (Chenopodium album), wild poinsettia (Euphorbia heterophylla), pigweed, palmer (palmer pigweed, Amaranthus palmeri), common waterhemp (Amaranthus rudis), surinam grass (Brachiaria decumbens), large crabgrass (Digitaria sanguinalis), crabgrass, Brazil (Brazilian crabgrass, Digitaria horizontalis), fall panicum (Panicum dichotomiflorum), giant foxtail (Setaria faberii), green foxtail (Setaria viridis), goosegrass (Eleusine indica), johnsongrass (Sorghum halepense), common ragweed (Ambrosia elation), barnyardgrass (Echinochloa crus-galli), southern sandbur (Cenchrus echinatus), arrowleaf sida (Sida rhombifolia), Italian ryegrass (Lolium multiflorum), dayflower, VA (Virginia (VA) dayflower, Commelina virginica), field bindweed (Convolvulus arvensis), cocklebur (common cocklebur, Xanthium strumarium), morningglory (Ipomoea coccinea), nightshade (eastern black nightshade, Solanum ptycanthum), kochia (Kochia scoparia), yellow nutsedge (Cyperus esculentus), and hairy beggarticks (Bidens pilosa), were planted into a silt loam soil and treated preemergence with test chemicals formulated in a non-phytotoxic solvent mixture which included a surfactant.
(§4) At the same time, plants from these crop and weed species and also horseweed (Canada horseweed, Conyza canadensis), smartweed (ladysthumb smartweed, Polygonum persicaria), waterhemp_RES1, (ALS & Triazine resistant common waterhemp, Amaranthus rudis), and waterhemp_RES2, (ALS & HPPD resistant common waterhemp, Amaranthus rudis) were treated with postemergence applications of test chemicals formulated in the same manner. Plants ranged in height from 2 to 18 cm for postemergence treatments (1- to 4-leaf stage). Treated plants and controls were maintained in a greenhouse for 14 to 21 days, after which time all species were compared to controls and visually evaluated. Plant response ratings, summarized in Table F, are based on a scale of 0 to 100 where 0 is no effect and 100 is complete control. A dash (-) response means no test result.

southern sandbur = assay: Test F postemergence; assay type: in vivo, Cenchrus echinatus; details: scale 0 to 100
Excerpt: as §3, §4

horseweed = assay: Test F postemergence; assay type: in vivo, Conyza canadensis; details: scale 0 to 100
Excerpt: as §3, §4

CCc1cc(C(=O)NCC(F)(F)F)nn1Cc1ccnc(C(F)(F)F)c1 [Compound 78, 5-ethyl-N-(2,2,2-trifluoroethyl)-1-[[(2-trifluoromethyl)-4-pyridinyl]methyl]-1H-pyrazole-3-carboxamide]
Plant response rating, Foxtail, Green (foxtail, green; 16 g ai/ha): 50 | Plant response rating, Foxtail, Green (foxtail, green; 31 g ai/ha): 100 | Plant response rating, Foxtail, Green (foxtail, green; 62 g ai/ha): 100 | Plant response rating, Foxtail, Green (foxtail, green; 125 g ai/ha): 100 | Plant response rating, Foxtail, Green (foxtail, green; 250 g ai/ha): 100 | Plant response rating, Sandbur (sandbur; 16 g ai/ha): 40 | Plant response rating, Sandbur (sandbur; 31 g ai/ha): 50 | Plant response rating, Sandbur (sandbur; 62 g ai/ha): 90 | Plant response rating, Sandbur (sandbur; 125 g ai/ha): 95 | Plant response rating, Sandbur (sandbur; 250 g ai/ha): 100 | Plant response rating, Ryegrass, Italian (ryegrass, Italian; 16 g ai/ha): 10 | Plant response rating, Ryegrass, Italian (ryegrass, Italian; 31 g ai/ha): 50 | Plant response rating, Ryegrass, Italian (ryegrass, Italian; 62 g ai/ha): 90 | Plant response rating, Ryegrass, Italian (ryegrass, Italian; 125 g ai/ha): 100 | Plant response rating, Ryegrass, Italian (ryegrass, Italian; 250 g ai/ha): 100 | Plant response rating, Bluegrass (bluegrass; 16 g ai/ha): 40 | Plant response rating, Bluegrass (bluegrass; 31 g ai/ha): 75 | Plant response rating, Bluegrass (bluegrass; 62 g ai/ha): 90 | Plant response rating, Bluegrass (bluegrass; 125 g ai/ha): 100 | Plant response rating, Bluegrass (bluegrass; 250 g ai/ha): 100 | Plant response rating, Mallow (mallow; 16 g ai/ha): 100 | Plant response rating, Mallow (mallow; 31 g ai/ha): 100 | Plant response rating, Mallow (mallow; 62 g ai/ha): 100 | Plant response rating, Mallow (mallow; 125 g ai/ha): 100 | Plant response rating, Mallow (mallow; 250 g ai/ha): 100 | Plant response rating, Buckwheat, Wild (buckwheat, wild; 16 g ai/ha): 60 | Plant response rating, Buckwheat, Wild (buckwheat, wild; 31 g ai/ha): 100 | Plant response rating, Buckwheat, Wild (buckwheat, wild; 62 g ai/ha): 100 | Plant response rating, Buckwheat, Wild (buckwheat, wild; 125 g ai/ha): 100 | Plant response rating, Buckwheat, Wild (buckwheat, wild; 250 g ai/ha): 100 | Plant response rating, Crabgrass, Brazil (crabgrass, Brazil; Postemergence, 31 g ai/ha): 40 | Plant response rating, Crabgrass, Brazil (crabgrass, Brazil; Postemergence, 125 g ai/ha): 70 | Plant response rating, Crabgrass, Brazil (crabgrass, Brazil; Postemergence, 250 g ai/ha): 90 | Plant response rating, Crabgrass, Brazil (crabgrass, Brazil; postemergence, 62 g ai/ha): 40 | Plant response rating, Crabgrass, Brazil (crabgrass, Brazil; postemergence, 500 g ai/ha): 95 | Plant response rating, Southern Sandbur (southern sandbur; Postemergence, 31 g ai/ha): 0 | Plant response rating, Southern Sandbur (southern sandbur; Postemergence, 125 g ai/ha): 30 | Plant response rating, Southern Sandbur (southern sandbur; Postemergence, 250 g ai/ha): 80 | Plant response rating, Southern Sandbur (southern sandbur; postemergence, 62 g ai/ha): 10 | Plant response rating, Southern Sandbur (southern sandbur; postemergence, 500 g ai/ha): 90 | Plant response rating, Horseweed (horseweed; Postemergence, 31 g ai/ha): 25 | Plant response rating, Horseweed (horseweed; Postemergence, 125 g ai/ha): 40 | Plant response rating, Horseweed (horseweed; Postemergence, 250 g ai/ha): 50 | Plant response rating, Horseweed (horseweed; postemergence, 62 g ai/ha): 30 | Plant response rating, Horseweed (horseweed; postemergence, 500 g ai/ha): 75

CCc1cc(C(=O)NC(C)C)nn1Cc1ccnc(C(F)(F)F)c1 [Compound 103]
Plant response rating, Foxtail, Green (foxtail, green; 16 g ai/ha): 100 | Plant response rating, Foxtail, Green (foxtail, green; 31 g ai/ha): 100 | Plant response rating, Foxtail, Green (foxtail, green; 62 g ai/ha): 100 | Plant response rating, Foxtail, Green (foxtail, green; 125 g ai/ha): 100 | Plant response rating, Foxtail, Green (foxtail, green; 250 g ai/ha): 100 | Plant response rating, Sandbur (sandbur; 16 g ai/ha): 40 | Plant response rating, Sandbur (sandbur; 31 g ai/ha): 70 | Plant response rating, Sandbur (sandbur; 62 g ai/ha): 100 | Plant response rating, Sandbur (sandbur; 125 g ai/ha): 100 | Plant response rating, Sandbur (sandbur; 250 g ai/ha): 100 | Plant response rating, Ryegrass, Italian (ryegrass, Italian; 16 g ai/ha): 50 | Plant response rating, Ryegrass, Italian (ryegrass, Italian; 31 g ai/ha): 98 | Plant response rating, Ryegrass, Italian (ryegrass, Italian; 62 g ai/ha): 100 | Plant response rating, Ryegrass, Italian (ryegrass, Italian; 125 g ai/ha): 100 | Plant response rating, Ryegrass, Italian (ryegrass, Italian; 250 g ai/ha): 100 | Plant response rating, Bluegrass (bluegrass; 16 g ai/ha): 40 | Plant response rating, Bluegrass (bluegrass; 31 g ai/ha): 90 | Plant response rating, Bluegrass (bluegrass; 62 g ai/ha): 95 | Plant response rating, Bluegrass (bluegrass; 125 g ai/ha): 98 | Plant response rating, Bluegrass (bluegrass; 250 g ai/ha): 100 | Plant response rating, Mallow (mallow; 16 g ai/ha): 95 | Plant response rating, Mallow (mallow; 31 g ai/ha): 98 | Plant response rating, Mallow (mallow; 62 g ai/ha): 98 | Plant response rating, Mallow (mallow; 125 g ai/ha): 100 | Plant response rating, Mallow (mallow; 250 g ai/ha): 100 | Plant response rating, Buckwheat, Wild (buckwheat, wild; 16 g ai/ha): 95 | Plant response rating, Buckwheat, Wild (buckwheat, wild; 31 g ai/ha): 100 | Plant response rating, Buckwheat, Wild (buckwheat, wild; 62 g ai/ha): 100 | Plant response rating, Buckwheat, Wild (buckwheat, wild; 125 g ai/ha): 100 | Plant response rating, Buckwheat, Wild (buckwheat, wild; 250 g ai/ha): 100

CCOc1cc(C(=O)NC(C)C)nn1Cc1ccnc(C(F)(F)F)c1 [Compound 188]
Plant response rating, Crabgrass, Brazil (crabgrass, Brazil; Postemergence, 31 g ai/ha): 20 | Plant response rating, Crabgrass, Brazil (crabgrass, Brazil; Postemergence, 125 g ai/ha): 75 | Plant response rating, Crabgrass, Brazil (crabgrass, Brazil; Postemergence, 250 g ai/ha): 90 | Plant response rating, Crabgrass, Brazil (crabgrass, Brazil; postemergence, 62 g ai/ha): 30 | Plant response rating, Crabgrass, Brazil (crabgrass, Brazil; postemergence, 500 g ai/ha): 95 | Plant response rating, Southern Sandbur (southern sandbur; Postemergence, 31 g ai/ha): 0 | Plant response rating, Southern Sandbur (southern sandbur; Postemergence, 125 g ai/ha): 50 | Plant response rating, Southern Sandbur (southern sandbur; Postemergence, 250 g ai/ha): 70 | Plant response rating, Southern Sandbur (southern sandbur; postemergence, 62 g ai/ha): 20 | Plant response rating, Southern Sandbur (southern sandbur; postemergence, 500 g ai/ha): 90 | Plant response rating, Horseweed (horseweed; Postemergence, 31 g ai/ha): 20 | Plant response rating, Horseweed (horseweed; Postemergence, 125 g ai/ha): 30 | Plant response rating, Horseweed (horseweed; Postemergence, 250 g ai/ha): 40 | Plant response rating, Horseweed (horseweed; postemergence, 62 g ai/ha): 30 | Plant response rating, Horseweed (horseweed; postemergence, 500 g ai/ha): 50

CCOc1cc(C(=O)NC2CC2)nn1Cc1ccnc(C(F)(F)F)c1 [Compound 189]
Plant response rating, Foxtail, Green (foxtail, green; 4 g ai/ha): 0 | Plant response rating, Foxtail, Green (foxtail, green; 8 g ai/ha): 20 | Plant response rating, Foxtail, Green (foxtail, green; 16 g ai/ha): 100 | Plant response rating, Foxtail, Green (foxtail, green; 31 g ai/ha): 100 | Plant response rating, Foxtail, Green (foxtail, green; 62 g ai/ha): 100 | Plant response rating, Sandbur (sandbur; 4 g ai/ha): 0 | Plant response rating, Sandbur (sandbur; 8 g ai/ha): 0 | Plant response rating, Sandbur (sandbur; 16 g ai/ha): 0 | Plant response rating, Sandbur (sandbur; 31 g ai/ha): 20 | Plant response rating, Sandbur (sandbur; 62 g ai/ha): 90 | Plant response rating, Ryegrass, Italian (ryegrass, Italian; 4 g ai/ha): 0 | Plant response rating, Ryegrass, Italian (ryegrass, Italian; 8 g ai/ha): 0 | Plant response rating, Ryegrass, Italian (ryegrass, Italian; 16 g ai/ha): 20 | Plant response rating, Ryegrass, Italian (ryegrass, Italian; 31 g ai/ha): 50 | Plant response rating, Ryegrass, Italian (ryegrass, Italian; 62 g ai/ha): 100 | Plant response rating, Bluegrass (bluegrass; 4 g ai/ha): 0 | Plant response rating, Bluegrass (bluegrass; 8 g ai/ha): 0 | Plant response rating, Bluegrass (bluegrass; 16 g ai/ha): 50 | Plant response rating, Bluegrass (bluegrass; 31 g ai/ha): 50 | Plant response rating, Bluegrass (bluegrass; 62 g ai/ha): 80 | Plant response rating, Mallow (mallow; 4 g ai/ha): 90 | Plant response rating, Mallow (mallow; 8 g ai/ha): 65 | Plant response rating, Mallow (mallow; 16 g ai/ha): 100 | Plant response rating, Mallow (mallow; 31 g ai/ha): 98 | Plant response rating, Mallow (mallow; 62 g ai/ha): 100 | Plant response rating, Buckwheat, Wild (buckwheat, wild; 4 g ai/ha): 70 | Plant response rating, Buckwheat, Wild (buckwheat, wild; 8 g ai/ha): 100 | Plant response rating, Buckwheat, Wild (buckwheat, wild; 16 g ai/ha): 100 | Plant response rating, Buckwheat, Wild (buckwheat, wild; 31 g ai/ha): 100 | Plant response rating, Buckwheat, Wild (buckwheat, wild; 62 g ai/ha): 100
